In US5707979A, “Phosphinic acid derivatives, their preparation and their use” (Hoechst Aktiengesellschaft, priority 1994, dated 1998):

target: HIV protease (Human immunodeficiency virus type 1 group M subtype B, UniProt P04585); assay: Test for inhibition of the HIV protease; assay type: biochemical; conditions: carried out as described in EP 0 428 849 A2, read-out: IC50 (concentration at which the activity of the enzyme is halved)
Procedure: 24) Test for inhibition of the HIV protease
The test for inhibition of the HIV protease was carried out as described in EP 0 428 849 A2. The following IC50 values indicate the concentration at which the activity of the enzyme is halved;

| Structure (SMILES) | IC50 [µM] |
| --- | --- |
| O=C1N(Cc2ccc(CBr)cc2)[C@@H](Cc2ccccc2)P(=O)(O)[C@@H](Cc2ccccc2)N1Cc1ccc(CBr)cc1 [Example 13, ([2R],[6S])-Dibenzyl-3,5-(4-bromomethylbenzyl)-1-hydroxy-3,5-diaza-4-oxophosphorinone-1-oxide] | 18 |
| O=C1N(Cc2ccc(CO)cc2)[C@@H](Cc2ccccc2)P(=O)(O)[C@@H](Cc2ccccc2)N1Cc1ccc(CO)cc1 [Example 12, ([2R],[6S])-Dibenzyl-3,5-(4-hydroxymethylbenzyl)-1-hydroxy-3,5-diaza-4-oxophosphorinone-1-oxide] | 4.8 |
| O=C1N(Cc2ccccc2)[C@@H](Cc2ccccc2)P(=O)(O)[C@@H](Cc2ccccc2)N1Cc1ccccc1 [Example 10, ([2R],3,5,[6S])-Tetrabenzyl-1-hydroxy-3,5-diaza-4-oxophosphorinone-1-oxide] | 50 |

Next, values leading:

| IC50 [µM] | Structure (SMILES) |
| --- | --- |
| 0.32 | O=C1N(Cc2ccc3ccccc3c2)[C@@H](Cc2ccccc2)P(=O)(O)[C@H](Cc2ccccc2)N1Cc1ccc2ccccc2c1 (relative stereo) [Example 19, 2,6-Dibenzyl-3,5-(2-naphthylmethyl)-1-hydroxy-3,5-diaza-4-oxophosphorinane-1-oxide (racemate composed of [2S,6S] and [2R,6R])] |
| 0.24 | O=C1N(Cc2ccc(CO)cc2)[C@@H](Cc2ccccc2)P(=O)(O)[C@H](Cc2ccccc2)N1Cc1ccc(CO)cc1 (relative stereo) [Example 23, ([2R],[6S])-Dibenzyl-3,5-(4-hydroxymethylbenzyl)-1-hydroxy-3,5-diaza-4-oxophosphorinane-1-oxide (racemate composed of [2S,6S] and [2R,6R])] |
